In US11339193B2, “CDP protein secretion inhibitors” (KEZAR LIFE SCIENCES, priority 2018, dated 2022):
Peptide text beside a SMILES is read from it.

Key:
Format in all cases: cell-based
[1] = test system: TNFα-FL/Gaussia Luciferase; assay: Dox induced TNFα-FL-Gluc assay; settings: Flp-In 293 T-REx cells, doxycycline, 24 hours; read-out: TNFa FL Gluc IC50
Summary of the method: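 Stable Flp-In 293 T-REx line expressing full-length TNFα (aa 1-233) fused at its C-terminus to Gaussia luciferase under doxycycline-inducible control. Cells plated the day before, then given compound dilutions in DMSO/media containing doxycycline and incubated at 37 °C, 5% CO2.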

[2] = test system: NCI-H929 multiple myeloma cell line; assay: H929 assay (cell viability, Celltiter-Glo); settings: Homo sapiens, NCI-H929; 48 hours, cell viability; read-out: H929 EC50
Summary of the method: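 Cells plated in RPMI 1640 with 10% FBS and 2 mM glutamine, treated with compound dilutions in DMSO/media. Incubation 48 h at 37° C, 5% CO2. Viability from luciferase luminescence signal.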

[3] = test system: Prl-ss+10aa/Gaussia Luciferase; assay: Prl-ss-Gluc assay (constitutively active or 24 hr Dox inducible); settings: Flp-In 293 T-REx cells, 24 hours; read-out: Prl IC50
Summary of the method: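 Stable Flp-In 293 T-REx lines express Prl signal sequence+10aa fused to Gaussia luciferase, either constitutively (pcDNA5/FRT) or under the T-REx promoter (pcDNA5/FRT/TO). Cells plated the day before; compounds in DMSO/media (with doxycycline for the inducible line, 24 h) incubated at 37 °C, 5% CO2.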

[4] = test system: HER3ss-Gluc; assay: HER3ss assay; settings: HEK-293T T-rex cells, transient transfection, doxycycline, 24 h; read-out: HER3 ss IC50
Summary of the method: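 HEK-293T T-REx cells were transiently transfected with HER3 signal sequence (plus four mature-domain residues) fused upstream of mature Gaussia luciferase. Cells were induced with doxycycline (1 μg/ml) and exposed to increasing compound concentrations for 24 h, then secreted luciferase in the conditioned medium was read by luminescence.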

[5] = test system: JJN3 plasma cell leukemia cell line; assay: JJN-3 assay (Alamar blue); settings: Homo sapiens, 72 h
Summary of the method: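 For both lines, 5000 cells/well were exposed to compound or a 1% DMSO-medium control for 72 h unless otherwise specified. Signal was normalized to the DMSO control.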

| SMILES | IC50 [1] [nM] | EC50 [2] [nM] | IC50 [3] [nM] | IC50 [4] [nM] | EC50 [5] [nM] |
| --- | --- | --- | --- | --- | --- |
| CC(C)C[C@@H]1NC(=O)[C@H](Cc2cn(Cc3ccccc3)c3ccccc23)N(C)C(=O)[C@H](CC(C)C)NC(=O)[C@H](CC(C)C)N(C)C(=O)[C@H](CC(C)C)NC(=O)[C@@H](CCC#N)OC(=O)[C@H](C)N(C)C1=O [C-16] (HELM PEPTIDE1{L.[meA].[N#CCC[C@@H](O[*:1])C(=O)[*:2]].L.[meL].L.[CN([C@@H](Cc1cn(Cc2ccccc2)c2ccccc12)C(=O)[*:2])[*:1]]}$PEPTIDE1,PEPTIDE1,1:R1-7:R2$$$V2.0) | 92 | 941 | 1820 | 38 | 245 |
| C#CC[C@H]1OC(=O)[C@H](C)N(C)C(C)[C@H](C[C@H](C)CCCC)NC(=O)[C@H](Cc2ccccc2)N(C)C(=O)[C@H](CC(C)C)NC(=O)[C@H](CC(C)C)N(C)C(=O)[C@H](C[C@H](C)CCCC)NC1=O (stereo partly shown) [C-01] | 79 | 454 | 11600 | 40 | 222 |
